{"source": "patent US20080139449A1", "about": "(priority 2005, published 2008)", "key": {"[1]": {"target": "T1, FPPS (Homo sapiens, UniProt P14324)"}, "[2]": {"target": "T1, FPPS", "conditions": "with respect to allylic substrates and IPP; cited from earlier work"}}, "data": [{"molecule": "NCCC(O)(P(=O)(O)O)P(=O)(O)O", "note": "[pamidronate]", "values": [{"measurement": "chemical shift changes in 15N,1H-TROSY spectrum upon ligand addition", "setting": "[1]; FPPS dimer 60 μM, pamidronate 270 μM, Mg2+ 900 μM", "result": "almost all of the non-overlapping resonances experience chemical shift changes"}]}, {"molecule": "C=C(C)CCOP(=O)(O)OP(=O)(O)O", "note": "[IPP, isopentenyl diphosphate]", "values": [{"measurement": "binding in the presence of zoledronate/Mg2+ (NMR)", "setting": "[1]; IPP 400 μM added to FPPS/zoledronate/Mg2+ sample", "result": "binds to FPPS even in the presence of zoledronate"}]}, {"molecule": "NCCCC(O)(P(=O)(O)O)P(=O)(O)O", "note": "[alendronate]", "values": [{"measurement": "mode of FPPS inhibition", "setting": "[2]", "result": "competitive with respect to allylic substrates but not IPP"}]}]}
